Measurements: US20190365774A1, “COMBINATION THERAPY OF BACE-1 INHIBITOR AND ANTI-N3PGLU ABETA ANTIBODY” (Eli Lilly and Company, priority 2016, published 2019)
Read-outs that look alike come from different tables or passages of the source.

What was measured:
Abeta 1-x = assay: In vivo inhibition of beta-secretase, brain Abeta 1-x in PDAPP mice; settings: young female PDAPP mice, three hours after dosing, vs vehicle
From the text: Several animal models, including mouse, guinea pig, dog, and monkey, may be used to screen for inhibition of beta-secretase activity in vivo following compound treatment. Animals used in this invention can be wild type, transgenic, or gene knockout animals. For example, the PDAPP mouse model, prepared as described in Games et al., Nature 373, 523-527 (1995), and other non-transgenic or gene knockout animals are useful to analyze in vivo inhibition of Abeta and sAPPbeta production in the presence of inhibitory compounds. Generally, 2 month old PDAPP mice, gene knockout mice or non-transgenic animals are administered compound formulated in vehicles, such as corn oil, beta-cyclodextran, phosphate buffers, PHARMASOLVE®, or other suitable vehicles via oral, subcutaneous, intra-venous, feeding, or other route of administration. One to twenty-four hours following the administration of compound, animals are sacrificed, and brains are removed for analysis of Abeta 1-x. “Abeta 1-x” as used herein refers to the sum of Abeta species that begin with residue 1 and end with a C-terminus greater than residue 28. This detects the majority of Abeta species and is often called “total Abeta”. Total Abeta peptides (Abeta 1-x) levels are measured by a sandwich ELISA, using monoclonal 266 as a capture antibody and biotinylated 3D6 as reporting antibody. (See May, et al., Journal of Neuroscience, 31, 16507-16516 (2011)).
For acute studies, compound or appropriate vehicle is administered and animals are sacrificed at about 3 hours after dosing. Brain tissue, is obtained from selected animals and analyzed for the presence of Abeta 1-x. After chronic dosing brain tissues of older APP transgenic animals may also be analyzed for the amount of beta-amyloid plaques following compound treatment.
For example, a 3, 10, and 30 mg/kg oral dose of Example 1, to young female PDAPP mice reduced Abeta 1-x peptide levels in brain hippocampus by 23% (non-significant), 43% (p<0.05), and 58% (p<0.01), respectively.

[1] = tested on: BACE1 activity in SH-SY5YAPP695Wt cells; assay: SH-SY5YAPP695Wt whole cell assay (Abeta 1-40 / 1-42 ELISA); assay type: cell-based; settings: Homo sapiens, Mean ± SEM, n = 4, 24 hours incubation
Procedure: (§1) To assess selectivity of BACE1 over BACE2, the test compound is evaluated in FRET-based enzymatic assays using specific substrates for BACE1 and BACE2 as described below. For in vitro enzymatic and cellular assays, the test compound is prepared in DMSO to make up a 10 mM stock solution. The stock solution is serially diluted in DMSO to obtain a ten-point dilution curve with final compound concentrations ranging from 10 μM to 0.05 nM in a 96-well round-bottom plate before conducting the in vitro enzymatic and whole cell assays.
The routine whole cell assay for the measurement of inhibition of BACE1 activity utilizes the human neuroblastoma cell line SH-SY5Y (ATCC Accession No. CRL2266) stably expressing a human APP695Wt cDNA. Cells are routinely used up to passage number 6 and then discarded.
SH-SY5YAPP695Wt cells are plated in 96 well tissue culture plates at 5.0×10^4 cells/well in 200 μL culture media (50% MEM/EBSS and Ham's F12, 1× each sodium pyruvate, non-essential amino acids and Na bicarbonate containing 10% FBS). The following day, media is removed from the cells, fresh media added then incubated at 37° C. for 24 hours in the presence/absence of test compound at the desired concentration range.
At the end of the incubation, conditioned media are analyzed for evidence of beta-secretase activity by analysis of Abeta peptides 1-40 and 1-42 by specific sandwich ELISAs. […]

human BACE2 (1-460):Fc = biological target: T1, human BACE2 (1-460):Fc (Homo sapiens, UniProt Q9Y5Z0); assay: BACE2 TMEM27 FRET assay; assay type: biochemical
T1 construct: made in house; host or cells: HEK293 (transient, secreted into conditioned media, Protein A purified)
T1 sequence (Q9Y5Z0 21-460): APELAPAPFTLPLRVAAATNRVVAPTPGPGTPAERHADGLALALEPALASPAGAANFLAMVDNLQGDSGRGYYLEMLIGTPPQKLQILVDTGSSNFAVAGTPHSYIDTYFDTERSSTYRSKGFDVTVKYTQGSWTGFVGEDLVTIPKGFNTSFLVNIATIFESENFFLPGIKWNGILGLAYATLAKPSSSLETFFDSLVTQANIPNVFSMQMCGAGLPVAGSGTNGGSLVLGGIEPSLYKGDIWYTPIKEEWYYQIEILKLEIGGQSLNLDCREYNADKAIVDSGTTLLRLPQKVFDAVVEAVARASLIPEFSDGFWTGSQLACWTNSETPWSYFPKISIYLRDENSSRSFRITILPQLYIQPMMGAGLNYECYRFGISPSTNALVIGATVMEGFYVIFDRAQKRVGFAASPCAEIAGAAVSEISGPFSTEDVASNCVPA
Procedure: as §1
Human BACE1 (accession number: AF190725) and human BACE2 (accession number: AF 204944) are cloned from total brain cDNA by RT-PCR. […]
Conditioned media of HEK293 cell transiently transfected with huBACE1:Fc or huBACE2:Fc cDNA are collected. […] The purity of final product is assessed by electrophoresis in 4-20% Tris-Glycine SDS-PAGE. […]
Transmembrane protein 27 (TMEM27) (Accession Number NM_020665), also known as Collectrin) is a recently described substrate for BACE2, but not BACE1 (Esterhazy, et al, Cell Metabolism, 14, 365-377 (2011)). […] The RFU of the mixture at time 0 is recorded at excitation wavelength 430 nm and emission wavelength 535 nm. […] The RFU at the end of incubation is recorded with the same excitation and emission settings used at time 0. […]

Question: Which results are given for `CC(F)(F)[C@H]1OC[C@]2(c3cc(NC(=O)c4cnc(-n5cncn5)cn4)ccc3F)N=C(N)SC[C@H]12` [Example 1, N-[3-[(4aS,5S,7aS)-2-Amino-5-(1,1-difluoroethyl)-4,4a,5,7-tetrahydrofuro[3,4-d][1,3]thiazin-7a-yl]-4-fluoro-phenyl]-5-(1,2,4-triazol-1-yl)pyrazine-2-carboxamide]?
Answer: reduction of Abeta 1-x peptide levels in brain hippocampus (Abeta 1-x; 3 mg/kg oral, non-significant): 23%; reduction of Abeta 1-x levels in brain cortical tissue (Abeta 1-x; 3 mg/kg oral, p<0.01): 43%; reduction of Abeta 1-x levels in brain cortical tissue (Abeta 1-x; 10 mg/kg oral, p<0.01): 59%; reduction of Abeta 1-x peptide levels in brain hippocampus (Abeta 1-x; 10 mg/kg oral, p<0.05): 43%; reduction of Abeta 1-x levels in brain cortical tissue (Abeta 1-x; 30 mg/kg oral, p<0.01): 73%; reduction of Abeta 1-x peptide levels in brain hippocampus (Abeta 1-x; 30 mg/kg oral, p<0.01): 58%; IC50 ([1]; read-out: SH-SY5YAPP695Wt A-beta (1-40) ELISA IC50): 0.385 ± 0.163 nM; IC50 ([1]; read-out: SH-SY5YAPP695Wt A-beta (1-42) ELISA IC50): 0.381 ± 0.266 nM; BACE2 IC50 / BACE1 IC50 ratio (fold selectivity for BACE1 over BACE2) (human BACE2 (1-460):Fc): about 400 fold
